# Data reported in patent publication US20200377518A1, “METHOD OF PREVENTING AND TREATING THROMBOSIS” (Rigel Pharmaceuticals, Inc., priority 2019, published 2020).
# Columns and labels:
# [1] = biological target: IgE- and IgG-mediated activation of Fc receptor signaling; conditions: read-out: EC50 for degranulation; cited from earlier work
# [2] = system: monocytes/macrophages, neutrophils, B lymphocytes; conditions: cited from earlier work
# ITP patients = assay: Fostamatinib in immune thrombocytic purpura (ITP) patients; type: in vivo, human
# C57Bl6 mice = assay: Arterial thrombosis, ferric chloride injury model of carotid artery; type: in vivo; conditions: fostamatinib chow for 3 days; FeCl3 on carotid artery
# Description: To investigate effect on arterial thrombosis, a ferric chloride injury model in mice is employed. 8-week-old C57Bl6 mice are fed fostamatinib or vehicle chow for 3 days, anaesthetized using mixture of ketamine (100 mg/kg)/xylazine (10 mg/kg) via intraperitoneal injection and have their right jugular vein exposed. Next, rhodamine 6G solution is injected into the right jugular vein to label platelets, exposed carotid artery (CA) staged at the microscope and the thrombosis is induced by applying a piece of filter paper (1×2 mm) saturated with FeCl3 solution directly on the CA. Thrombus formation is identified by accumulation of the fluorescent platelets, which is observed in real-time recording video images under the microscope.
# For arterial thrombosis assay methods generally, see, Wei Li, Thomas M. McIntyre, Roy L. Silverstein. Ferric chloride-induced murine carotid arterial injury: A model of redox pathology. Redox Biology 1 (2013) 50-55, and Wei Li, Marvin Nieman, Anirban Sen Gupta. Ferric Chloride-induced Murine Thrombosis Models. J. Vis. Exp. (115), e54479, doi:10.3791/54479 (2016).
# [3] = system: Transgenic HIT mice homozygous for both FcγRIIA and human PF4 and null for mouse PF4; assay: Inhibition of thrombosis in vivo, transgenic HIT mice, lung thrombi; conditions: chow containing 0.5, 1 and 2 g/kg of R788 for 3 days, KKO or HIT-IgG, then heparin, lungs 3 hours later
# Source text: Transgenic HIT mice homozygous for both FcγRIIA and human PF4 and null for mouse PF4 are used to evaluate the effects of fostamatinib on immune complexes (IC)-induced thrombocytopenia and thrombosis. 6-12 weeks old transgenic male mice are fed the control chow or chow containing 0.5, 1 and 2 g/kg of R788 for 3 days prior to the injection of either the monoclonal HIT-like antibody KKO or IgG from HIT patients (HIT-IgG). For HIT-induced thrombocytopenia experiments, all mice received heparin subcutaneously at 1600 U/kg body weight once daily for 6 days, starting with first day after antibody injection. Retro-orbital blood collection is performed daily after anesthetizing the animals starting a day before HIT antibody injection to monitor thrombocytopenia by counting platelets using standard equipment.
# To assess fostamatinib effect on thrombosis, the mice are fed with drug or vehicle chow followed by injection of the HIT antibodies as described. Next day, each animal is retro-orbitally infused with 1×10^8 Alexa750-labeled platelets from untreated syngeneic donor mice prior to heparin injection. Animals are terminated 3 hours later, their lungs are excised, perfused with PBS, fixed with 7% paraformaldehyde and imaged using Odyssey Imaging System (LI-COR Bio). Thrombi are counted and scored by intensity using NIS Elements software (Nikon). […]
# C57Bl/6 WT male mice = assay: Deep vein thrombosis, inferior vena cava (IVC) stenosis model; type: in vivo; conditions: fostamatinib chow for 3 days; 48 hours after the surgery
# Description: Mice are fed fostamatinib or vehicle chow for 3 days, anaesthetized using isoflurane and then subjected to laparotomy. After tying off the side branches of the IVC, the IVC is stenosed with a ligature and a 30-gauge spacer to maintain a small degree of blood flow. Mice are allowed to recover, then culled 48 hours after the surgery and the IVC are examined for the presence and size of thrombus.
# For deep vein thrombosis assay methods generally, see, Low dose Btk inhibitors selectively block platelet activation by CLEC-2. Phillip L. R. Nicolson et al. Haematologica 2020 Jan. 16. pii: haematol. 2019.218545. doi: 10.3324/haematol.2019.218545
Compound,EC50 [1] [nM],BCR-mediated activation of B lymphocytes [2],Syk-dependent FcR-mediated activation of monocytes/macrophages and neutrophils [2],platelet levels (ITP patients),risk of thrombosis (ITP patients),arterial thrombus formation (accumulation of fluorescent platelets) (C57Bl6 mice),heparin induced thrombosis (lung thrombi counted and scored by intensity) [3],heparin induced thrombosis (lung thrombi counted and scored by intensity) ([3]; listed as R788),presence and size of thrombus in IVC (C57Bl/6 WT male mice)
"COc1cc(Nc2ncc(F)c(Nc3ccc4c(n3)NC(=O)C(C)(C)O4)n2)cc(OC)c1OC [R406, 6-((5-fluoro-2-((3,4,5-trimethoxyphenyl)amino)pyrimidin-4-yl)amino)-2,2-dimethyl-2H-pyrido[3,2-b][1,4]oxazin-3(4H)-one]",56 to 64,blocked,blocked,,,,,,
"COc1cc(Nc2ncc(F)c(Nc3ccc4c(n3)N(COP(=O)(O)O)C(=O)C(C)(C)O4)n2)cc(OC)c1OC [fostamatinib, [6-({5-Fluoro-2-[(3,4,5-trimethoxyphenyl)amino]-4-pyrimidinyl}amino)-2,2-dimethyl-3-oxo-2,3-dihydro-4H-pyrido[3,2-b][1,4]oxazin-4-yl]methyl dihydrogen phosphate]",,,,increases platelet levels,does not appear to increase risk of thrombosis,Lack of thrombus formation,effectively reduces heparin induced thrombosis,inhibits thrombosis in vivo,Relative lack of thrombus
